These compounds were tested against T1, DLK (Homo sapiens, UniProt Q12852). Settings: read-out: DLK (Ki) μM; TR-FRET; 5 nM GST-tagged DLK (catalytic domain aa 1-520), 40 nM HIS-MKK4 K131M substrate, 30 μM ATP, 60 minutes.
T1 sequence (Q12852 1-520): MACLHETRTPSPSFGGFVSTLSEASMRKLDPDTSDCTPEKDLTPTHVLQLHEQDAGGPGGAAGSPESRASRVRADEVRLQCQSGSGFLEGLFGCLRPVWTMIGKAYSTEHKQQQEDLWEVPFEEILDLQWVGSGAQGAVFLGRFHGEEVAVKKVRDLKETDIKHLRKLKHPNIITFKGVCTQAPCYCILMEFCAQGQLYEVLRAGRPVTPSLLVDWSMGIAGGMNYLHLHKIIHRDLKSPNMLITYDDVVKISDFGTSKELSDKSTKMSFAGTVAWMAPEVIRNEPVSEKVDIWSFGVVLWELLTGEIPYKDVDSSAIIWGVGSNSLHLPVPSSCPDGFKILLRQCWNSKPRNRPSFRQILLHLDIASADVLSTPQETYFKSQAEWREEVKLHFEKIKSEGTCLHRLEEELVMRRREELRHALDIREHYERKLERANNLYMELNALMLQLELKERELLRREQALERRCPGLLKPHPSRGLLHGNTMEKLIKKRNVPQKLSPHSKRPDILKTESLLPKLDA

Compound | Ki [µM]
COCCN1C[C@@H]2[C@H](C1)[C@H]2c1cc(-c2cnc(N)c(Cl)c2)nn1CC1CC1(F)F (stereo partly drawn) [Compound 121, 3-chloro-5-(1-((2,2-difluorocyclopro-pyl)methyl)-5-((1R,5S,6r)-3-(2-meth-oxyethyl)-3-azabicyclo[3.1.0]hexan-6-yl)-1H-pyrazol-3-yl)pyridin-2-amine] | 0.09
COCCN1C[C@@H]2[C@H](C1)[C@H]2c1cc(-c2cnc(N)c(C(F)(F)F)c2)nn1CC1CC1 [Compound 122, 5-(1-(cyclopropylmethyl)-5-((1R,5S, 6r)-3-(2-methoxyethyl)-3-azabicyclo [3.1.0]hexan-6-yl)-1H-pyrazol-3-yl)-3-(trifluoromethyl)pyridin-2-amine] | 0.0079
COCCN1C[C@@H]2[C@H](C1)[C@H]2c1cc(-c2cnc(N)c(OC(F)(F)F)c2)nn1C(C)C [Compound 125, 5-(1-isopropyl-5-((1R,5S,6r)-3-(2-meth-oxyethyl)-3-azabicyclo[3.1.0]hex-an-6-yl)-1H-pyrazol-3-yl)-3-(trifluoro-methoxy)pyridin-2-amine] | 0.0058
COCCN1C[C@@H]2[C@H](C1)[C@H]2c1cc(-c2cnc(N)c(C(F)(F)F)c2)nn1CC(F)(F)F [Compound 126, 5-(5-((1R,5S,6r)-3-(2-methoxyethyl)-3-azabicyclo[3.1.0]hexan-6-yl)-1-(2,2,2-trifluoroethyl)-1H-pyrazol-3-yl)-3-(trifluoromethyl)pyridin-2-amine] | 0.0019
CC(C)n1nc(-c2cnc(N)c(C(F)(F)F)c2)cc1[C@H]1[C@@H]2CN(CCC#N)C[C@@H]21 [Compound 127, 3-((1R,5S,6r)-6-(3-(6-amino-5-(trifluoro-methyl)pyridin-3-yl)-1-isopropyl-1H-pyrazol-5-yl)-3-azabicyclo[3.1.0]hexan-3-yl)propanenitrile] | 0.0059
CC(C)n1nc(-c2cnc(N)c(C(F)(F)F)c2)cc1[C@H]1[C@@H]2CN(CC(C)(C)O)C[C@@H]21 [Compound 128, 1-((1R,5S,6r)-6-(3-(6-amino-5-(trifluoro-methyl)pyridin-3-yl)-1-isopropyl-1H-pyrazol-5-yl)-3-azabicyclo[3.1.0]hexan-3-yl)-2-methylpropan-2-ol] | 0.011
COCC(C)N1C[C@@H]2[C@H](C1)[C@H]2c1cc(-c2cnc(N)c(C(F)(F)F)c2)nn1C(C)C (stereo partly drawn) [Compound 129, 5-(1-isopropyl-5-((1R,5S,6r)-3-(1-meth-oxypropan-2-yl)-3-azabicyclo[3.1.0]hexan-6-yl)-1H-pyrazol-3-yl)-3-(trifluoromethyl)pyridin-2-amine] | 0.0013
Nc1ncc(-c2cc([C@H]3[C@@H]4CN(C5COC5)C[C@@H]43)n(C3CCCC3)n2)cc1Cl [Compound 136, 3-chloro-5-(1-cyclopentyl-5-((1R,5S,6r)-3-(oxetan-3-yl)-3-azabicyclo [3.1.0]hexan-6-yl)-1H-pyrazol-3-yl) pyridin-2-amine] | 0.024
Nc1ncc(-c2cc([C@H]3[C@@H]4CN(C5COC5)C[C@@H]43)n(C3CCCC3)n2)cc1OC(F)F [Compound 137, 5-(1-cyclopentyl-5-((1R,5S,6r)-3-(oxe-tan-3-yl)-3-azabicyclo[3.1.0]hexan-6-yl)-1H-pyrazol-3-yl)-3-(difluoro-methoxy)pyridin-2-amine] | 0.0074
CC(C)n1nc(-c2cnc(N)c(Cl)c2)cc1[C@H]1[C@@H]2CN(C3COC3)C[C@@H]21 [Compound 140, 3-chloro-5-(1-isopropyl-5-((1R,5S,6r)-3-(oxetan-3-yl)-3-azabicyclo[3.1.0]hexan-6-yl)-1H-pyrazol-3-yl)pyridin-2-amine] | 0.04
CC(C)n1nc(-c2cnc(N)c(OC(F)F)c2)cc1[C@H]1[C@@H]2CN(C3COC3)C[C@@H]21 [Compound 141, 3-(difluoromethoxy)-5-(1-isopropyl-5-((1R,5S,6r)-3-(oxetan-3-yl)-3-aza-bicyclo[3.1.0]hexan-6-yl)-1H-pyrazol-3-yl)pyridin-2-amine] | 0.008

The remaining compounds from weak to strong by Ki, led by results:

Ki [µM] | Compound
0.037 | Nc1ncc(-c2cc([C@H]3[C@@H]4CN(C5COC5)C[C@@H]43)n(C3CCCC3)n2)cc1C1CC1 [Compound 139, 5-(1-cyclopentyl-5-((1R,5S,6r)-3-(oxe-tan-3-yl)-3-azabicyclo[3.1.0]hexan-6-yl)-1H-pyrazol-3-yl)-3-cyclopro-pylpyridin-2-amine]
0.031 | N#Cc1cc(-c2cc([C@H]3[C@@H]4CN(C5COC5)C[C@@H]43)n(C3CCCC3)n2)cnc1N [Compound 138, 2-amino-5-(1-cyclopentyl-5-((1R,5S,6r)-3-(oxetan-3-yl)-3-azabicyclo[3.1.0]hexan-6-yl)-1H-pyrazol-3-yl)nicoti-nitrile]
0.027 | COCCN1C[C@@H]2[C@H](C1)[C@H]2c1cc(-c2cnc(N)c(Cl)c2)nn1CC1CC1 [Compound 123, 3-chloro-5-(1-(cyclopropylmethyl)-5-((1R,5S,6r)-3-(2-methoxyethyl)-3-aza-bicyclo[3.1.0]hexan-6-yl)-1H-pyra-zol-3-yl)pyridin-2-amine]
0.027 | COCCN1C[C@@H]2[C@H](C1)[C@H]2c1cc(-c2cnc(N)c(C(F)(F)F)c2)nn1CC1CCC1 [Compound 124, 5-(1-(cyclobutylmethyl)-5-((1R,5S,6r)-3-(2-methoxyethyl)-3-azabicyclo [3.1.0]hexan-6-yl)-1H-pyrazol-3-yl)-3-(trifluoromethyl)pyridin-2-amine]
0.025 | CC(C)n1nc(-c2cnc3[nH]cc(C#N)c3c2)cc1[C@H]1[C@@H]2CN(C3COC3)C[C@@H]21 [Compound 132, 5-(1-isopropyl-5-((1R,5S,6r)-3-(oxetan-3-yl)-3-azabicyclo[3.1.0]hexan-6-yl)-1H-pyrazol-3-yl)-1H-pyrrolo[2,3-b]pyridine-3-carbonitrile]
0.022 | CC(C)n1nc(-c2cnc(N)c(C3CC3)c2)cc1[C@H]1[C@@H]2CN(C3COC3)C[C@@H]21 [Compound 142, 3-cyclopropyl-5-(1-isopropyl-5-((1R,5S,6r)-3-(oxetan-3-yl)-3-azabicyclo [3.1.0]hexan-6-yl)-1H-pyrazol-3-yl) pyridin-2-amine]
0.0089 | Nc1ncc(-c2cc([C@H]3[C@@H]4CN(C5COC5)C[C@@H]43)n(C3CCCC3)n2)cc1C(F)(F)F [Compound 135, 5-(1-cyclopentyl-5-((1R,5S,6r)-3-(oxetan-3-yl)-3-azabicyclo[3.1.0]hexan-6-yl)-1H-pyrazol-3-yl)-3-(trifluoromethyl)pyridin-2-amine]
0.0056 | CC(C)OC(=O)N1C[C@@H]2[C@H](C1)[C@H]2c1cc(-c2cnc(N)c(C(F)(F)F)c2)nn1C(C)C [Compound 130, (1R,5S,6r)-isopropyl 6-(3-(6-amino-5-(trifluoromethyl)pyr-ridin-3-yl)-1-isopropyl-1H-pyrazol-5-yl)-3-azabicyclo[3.1.0]hexane-3-car-boxylate]
0.0044 | CC(CC#N)N1C[C@@H]2[C@H](C1)[C@H]2c1cc(-c2cnc(N)c(C(F)(F)F)c2)nn1C(C)C (stereo partly drawn) [Compound 131, 3-((1R,5S,6r)-6-(3-(6-amino-5-(trifluoro-methyl)pyridin-3-yl)-1-isopropyl-1H-pyrazol-5-yl)-3-azabicyclo[3.1.0]hexan-3-yl)butanenitrile]
0.0004 | CC(C)n1nc(-c2cnc3[nH]cc(C(F)(F)F)c3c2)cc1[C@H]1[C@@H]2CN(C3COC3)C[C@@H]21 [Compound 133, 5-(1-isopropyl-5-((1R,5S,6r)-3-(oxe-tan-3-yl)-3-azabicyclo[3.1.0]hexan-6-yl)-1H-pyrazol-3-yl)-3-(trifluorometh-yl)-1H-pyrrolo[2,3-b]pyridine]

Reference: US10028942B2 (priority 2013, dated 2018)
